Where a name gives a salt, the structure may show the parent alone.
Experiment: In vitro rat plasma stability assay, formation of tafamidis
Format: in vitro ADME
Settings: 37° C., 2 µM test compound
Description: A stability assay in plasma (rat or human) was used to evaluate the ability of a compound provided herein to convert to an active TTR stabilizer. The test compound was added to plasma and incubated at 37° C. in a water bath at a concentration of 2 µM. At each time point (0, 10, 30, 60 and 120 min or 0, 60, 120, 180 and 240 min), stop solution (tolbutamide plus labetalol) was added to precipitate protein and mixed thoroughly. After centrifugation, an aliquot of supernatant was analyzed by LC-MS/MS. The percentage of formation of active agent was calculated at each time point.

| Formation of tafamidis at 120 min | Structure (SMILES) |
| --- | --- |
| B (B is ≥25 to <50%) | CC(C)(C)OC(=O)N[C@H](Cc1cccc(OC(=O)c2ccc3nc(-c4cc(Cl)cc(Cl)c4)oc3c2)c1)C(=O)O [Compound 72] |
| D (D is ≥75%) | O=C(OCCCC1CCOC1)c1ccc2nc(-c3cc(Cl)cc(Cl)c3)oc2c1 (stereo not shown) [Compound 100] |
| B (B is ≥25 to <50%) | O=C(OC1CCOC1=O)c1ccc2nc(-c3cc(Cl)cc(Cl)c3)oc2c1 (stereo not shown) [Compound 21] |
| A (A is <25%) | O=C(OC[C@H]1O[C@@H](O)C(O)[C@H](O)C1O)c1ccc2nc(-c3cc(Cl)cc(Cl)c3)oc2c1 (stereo partly shown) [Compound 5, (3,4,5,6-Tetrahydroxytetrahydro-2H-pyran-2-yl)methyl 2-(3,5-Dichlorophenyl) Benzo[d]oxazole-6-Carboxylate] |
| C (C is ≥50 to <75%) | C[C@H](COC(=O)c1ccc2nc(-c3cc(Cl)cc(Cl)c3)oc2c1)N(C)C [Compound 45, (R)-2-(dimethylamino)propyl 2-(3,5-dichlorophenyl)benzo[d] oxazole-6-carboxylate] |
| A (A is <25%) | CN(CCO)C(=O)c1ccc2nc(-c3cc(Cl)cc(Cl)c3)oc2c1 [Compound 65, 2-(3,5-dichlorophenyl)-N-(2-hydroxyethyl)-N-methylbenzo [d] oxazole-6-carboxamide] |
| A (A is <25%) | N[C@H](Cc1ccc(OC(=O)c2ccc3nc(-c4cc(Cl)cc(Cl)c4)oc3c2)cc1)C(=O)O [Compound 71] |
| A (A is <25%) | O=C(NCCO)c1ccc2nc(-c3cc(Cl)cc(Cl)c3)oc2c1 [Compound 64, 2-(3,5-dichlorophenyl)-N-(2-hydroxyethyl)benzo[d]oxazole-6-carboxamide] |
| C (C is ≥50 to <75%) | O=C(OCc1ncco1)c1ccc2nc(-c3cc(Cl)cc(Cl)c3)oc2c1 [Compound 91] |
| B (B is ≥25 to <50%) | CN1CCN(CCOC(=O)c2ccc3nc(-c4cc(Cl)cc(Cl)c4)oc3c2)CC1 [Compound 93] |
| A (A is <25%) | O=C(OCCC1CCCO1)c1ccc2nc(-c3cc(Cl)cc(Cl)c3)oc2c1 (stereo not shown) [Compound 97] |
| D (D is ≥75%) | CN(C)CCOC(=O)c1ccc2nc(-c3cc(Cl)cc(Cl)c3)oc2c1 [Compound 6, 2-(dimethylamino)ethyl 2-(3,5-dichlorophenyl)benzo-[d]oxazole-6-carboxylate hydrochloride] |
| D (D is ≥75%) | O=C(OCCCN1CCNCC1)c1ccc2nc(-c3cc(Cl)cc(Cl)c3)oc2c1 [Compound 83] |
| D (D is ≥75%) | O=C(OC1CCOC1)c1ccc2nc(-c3cc(Cl)cc(Cl)c3)oc2c1 (stereo not shown) [Compound 95] |
| A (A is <25%) | CNCCOC(=O)c1ccc2nc(-c3cc(Cl)cc(Cl)c3)oc2c1 [Compound 9, 2-(methylamino)ethyl 2-(3,5-dichlorophenyl)benzo[d]oxazole-6-carboxylate hydrochloride] |
| A (A is <25%) | O=C(NCC(F)(F)F)c1ccc2nc(-c3cc(Cl)cc(Cl)c3)oc2c1 [Compound 67, 2-(3,5-dichlorophenyl)-N-(2,2,2-trifluoroethyl)benzo[d] oxazole-6-carboxamide] |
| A (A is <25%) | O=C(OCCC[n+]1ccccc1)c1ccc2nc(-c3cc(Cl)cc(Cl)c3)oc2c1.[Br-] [Compound 3, 1-(3-(2-(3,5-Dichlorophenyl)benzo[d]oxazole-6-carbonyloxy)propyl)-pyridinium bromide] |
| A (A is <25%) | NCCCOC(=O)c1ccc2nc(-c3cc(Cl)cc(Cl)c3)oc2c1 [Compound 25, 3-aminopropyl 2-(3,5-dichlorophenyl)benzo[d]oxazole-6-carboxylate hydrochloride] |
| C (C is ≥50 to <75%) | CCN(C)CCOC(=O)c1ccc2nc(-c3cc(Cl)cc(Cl)c3)oc2c1 [Compound 43] |
| B (B is ≥25 to <50%) | Cc1oc(=O)n(C)c1COC(=O)c1ccc2nc(-c3cc(Cl)cc(Cl)c3)oc2c1 [Compound 30, (3,5-dimethyl-2-oxo-2,3-dihydrooxazol-4-yl)methyl 2-(3,5-dichlorophenyl) benzo[d]oxazole-6-carboxylate] |
| C (C is ≥50 to <75%) | O=C(OCCCC1CCCO1)c1ccc2nc(-c3cc(Cl)cc(Cl)c3)oc2c1 (stereo not shown) [Compound 101] |
| D (D is ≥75%) | O=C(OCCCN1CCOCC1)c1ccc2nc(-c3cc(Cl)cc(Cl)c3)oc2c1 [Compound 81] |
| D (D is ≥75%) | Cc1oc(=O)oc1COC(=O)c1ccc2nc(-c3cc(Cl)cc(Cl)c3)oc2c1 [Compound 24, (5-methyl-2-oxo-1,3-dioxol-4-yl)methyl 2-(3,5-dichlorophenyl)benzo[d] oxazole-6-carboxylate] |
| C (C is ≥50 to <75%) | CN1CCN(CCCOC(=O)c2ccc3nc(-c4cc(Cl)cc(Cl)c4)oc3c2)CC1 [Compound 94] |

| Structure (SMILES) | Formation of tafamidis at 120 min |
| --- | --- |
| CC(C)(C)OC(=O)N[C@@H](Cc1ccc(OC(=O)c2ccc3nc(-c4cc(Cl)cc(Cl)c4)oc3c2)cc1)C(=O)O [Compound 22, (S)-2-((tert-butoxycarbonyl)amino)-3-(4-((2-(3,5-dichlorophenyl)benzo[d]oxazole-6-carbonyl)oxy)phenyl)propanoic acid] | D (D is ≥75%) |
| CN(CCOC(=O)c1ccc2nc(-c3cc(Cl)cc(Cl)c3)oc2c1)C(=O)OC(C)(C)C [Compound 8, 2-((tert-butoxycarbonyl)(methyl)amino)ethyl 2-(3,5-dichlorophenyl) benzo[d] oxazole-6-carboxylate] | D (D is ≥75%) |
| CC(C)(C)OC(=O)N1CCC(OC(=O)c2ccc3nc(-c4cc(Cl)cc(Cl)c4)oc3c2)CC1 [Compound 12, 1-(tert-butoxycarbonyl)piperidin-4-yl 2-(3,5-dichlorophenyl)benzo [d]oxazole-6-carboxylate] | A (A is <25%) |
| CC(C)(C)OC(=O)NCCOC(=O)c1ccc2nc(-c3cc(Cl)cc(Cl)c3)oc2c1 [Compound 10, 2-((tert-butoxycarbonyl)amino)ethyl 2-(3,5-dichlorophenyl) benzo [d]oxazole-6-carboxylate] | A (A is <25%) |
| CC(C)(C)OC(=O)N[C@@H](Cc1ccc(OC(=O)c2ccc3nc(-c4cc(Cl)cc(Cl)c4)oc3c2)cc1)C(=O)OCc1ccccc1 [Compound 18, (S)-4-(3-(benzyloxy)-2-((tert-butoxycarbonyl)amino)-3-oxopropyl) phenyl 2-(3,5-dichlorophenyl)benzo[d]oxazole-6-carboxylate] | C (C is ≥50 to <75%) |
| O=C(OCCC1CCOC1)c1ccc2nc(-c3cc(Cl)cc(Cl)c3)oc2c1 (stereo not shown) [Compound 96, 2-(tetrahydrofuran-3-yl)ethyl 2-(3,5-dichlorophenyl)benzo[d] oxazole-6-carboxylate] | C (C is ≥50 to <75%) |
| CC(C)(C)OC(=O)NCCCOC(=O)c1ccc2nc(-c3cc(Cl)cc(Cl)c3)oc2c1 [Compound 31, 3-((tert-butoxycarbonyl)amino)propyl 2-(3,5-dichlorophenyl) benzo [d]oxazole-6-carboxylate] | C (C is ≥50 to <75%) |
